# From patent US12390441B2, “Immunomodulating o-het/aryl azalides” (Zoetis Services LLC, priority 2020, dated 2025)
# Marks after values point to notes of the source that are not given here.
# What was measured:
# [1] = tested on: BRD pathogens, M. haemolytica and P. multocida; assay: In-vitro MIC model, BRD pathogen screening panel; type: cell-based, Mannheimia haemolytica; Pasteurella multocida; conditions: for MIC for at least one BRD strain (asterisk on Ex#): Table F, Formula (1-A1a) compounds
# TNF-α = assay: Whole blood assay, LPS stimulation, MSD cytokine detection; type: cell-based; conditions: fresh whole bovine blood
# IL-1β = assay: as above; type: cell-based, bovine; conditions: fresh whole bovine blood, LPS stimulation; drug concentration giving overstimulation (OS) of IL-1β
# IL-6 = assay: as above; type: cell-based; conditions: fresh whole bovine blood
smiles,measurement,setting,value
CC[C@H]1OC(=O)[C@H](C)[C@@H](O)[C@H](C)[C@@H](O[C@@H]2O[C@H](C)C[C@H](N(C)C(=O)N(C)c3ccccc3)[C@H]2Oc2ccc(OC)cc2)[C@](C)(O)C[C@@H](C)CN(C)[C@H](C)[C@@H](O)[C@]1(C)O [Example C-13],MIC flag at the example number (Table C),[1]; at least one BRD strain,C-13* (MIC ≤ 64 μg/mL for at least one BRD strain)
same,IC50,TNF-α,44 µM
same,IL-1ß OS of LPS,IL-1β,40 µM
CCCNC[C@]1(O)[C@H](C)O[C@@H](O[C@H]2[C@H](C)[C@@H](O[C@@H]3O[C@H](C)C[C@H](NC)[C@H]3Oc3cccc(F)c3)[C@](C)(O)C[C@@H](C)CN[C@H](C)[C@@H](O)[C@](C)(O)[C@@H](CC)OC(=O)[C@@H]2C)C[C@@]1(C)OC [Example E-7],MIC flag at the example number (Table E),[1]; at least one BRD strain,E-7* (MIC ≤ 64 μg/mL for at least one BRD strain)
same,IC50,IL-6,40 µM
same,IC50,TNF-α,15 µM
same,IL-1ß OS of LPS,IL-1β,40 µM
CCCNC[C@]1(O)[C@H](C)O[C@@H](O[C@H]2[C@H](C)[C@@H](O[C@@H]3O[C@H](C)C[C@H](NC)[C@H]3Oc3cc(F)c(OC)c(F)c3)[C@](C)(O)C[C@@H](C)CN[C@H](C)[C@@H](O)[C@](C)(O)[C@@H](CC)OC(=O)[C@@H]2C)C[C@@]1(C)OC [Example E-9],MIC flag at the example number (Table E),[1]; at least one BRD strain,E-9* (MIC ≤ 64 μg/mL for at least one BRD strain)
same,IC50,IL-6,30 µM
same,IC50,TNF-α,18 µM
same,IL-1ß OS of LPS,IL-1β,40 µM
CCCNC[C@]1(O)[C@H](C)O[C@@H](O[C@H]2[C@H](C)[C@@H](O[C@@H]3O[C@H](C)C[C@H](NC)[C@H]3Oc3ccc(OC)c(OC(C)C)c3)[C@](C)(O)C[C@@H](C)CN[C@H](C)[C@@H](O)[C@](C)(O)[C@@H](CC)OC(=O)[C@@H]2C)C[C@@]1(C)OC [Example E-20],MIC flag at the example number (Table E),[1]; at least one BRD strain,E-20* (MIC ≤ 64 μg/mL for at least one BRD strain)
same,IC50,IL-6,40 µM
same,IC50,TNF-α,25 µM
same,IL-1ß OS of LPS,IL-1β,100 µM
CCCNC[C@]1(O)[C@H](C)O[C@@H](O[C@H]2[C@H](C)[C@@H](O[C@@H]3O[C@H](C)C[C@H](NC)[C@H]3Oc3ccc(F)c(F)c3)[C@](C)(O)C[C@@H](C)CN[C@H](C)[C@@H](O)[C@](C)(O)[C@@H](CC)OC(=O)[C@@H]2C)C[C@@]1(C)OC [Example E-36],MIC flag at the example number (Table E),[1]; at least one BRD strain,E-36* (MIC ≤ 64 μg/mL for at least one BRD strain)
same,IC50,IL-6,10 µM
same,IC50,TNF-α,3 µM
same,IL-1ß OS of LPS,IL-1β,16 µM
CCCNC[C@]1(O)[C@H](C)O[C@@H](O[C@H]2[C@H](C)[C@@H](O[C@@H]3O[C@H](C)C[C@H](N(C)C)[C@H]3Oc3ccc(OC)cc3OC)[C@](C)(O)C[C@@H](C)CN[C@H](C)[C@@H](O)[C@](C)(O)[C@@H](CC)OC(=O)[C@@H]2C)C[C@@]1(C)OC [Example E-97],MIC flag at the example number (Table E),[1]; at least one BRD strain,E-97* (MIC ≤ 64 μg/mL for at least one BRD strain)
CCCNC[C@]1(O)[C@H](C)O[C@@H](O[C@H]2[C@H](C)[C@@H](O[C@@H]3O[C@H](C)C[C@H](NC)[C@H]3Oc3ccc(OC(F)(F)F)cc3)[C@](C)(O)C[C@@H](C)CN[C@H](C)[C@@H](O)[C@](C)(O)[C@@H](CC)OC(=O)[C@@H]2C)C[C@@]1(C)OC [Example E-101],MIC flag at the example number (Table E),[1]; at least one BRD strain,E-101* (MIC ≤ 64 μg/mL for at least one BRD strain)
CCCNC[C@]1(O)[C@H](C)O[C@@H](O[C@H]2[C@H](C)[C@@H](O[C@@H]3O[C@H](C)C[C@H](NC)[C@H]3Oc3ccc(C)cc3)[C@](C)(O)C[C@@H](C)CN[C@H](C)[C@@H](O)[C@](C)(O)[C@@H](CC)OC(=O)[C@@H]2C)C[C@@]1(C)OC [Example E-103],MIC flag at the example number (Table E),[1]; at least one BRD strain,E-103* (MIC ≤ 64 μg/mL for at least one BRD strain)
CCCNC[C@]1(O)[C@H](C)O[C@@H](O[C@H]2[C@H](C)[C@@H](O[C@@H]3O[C@H](C)C[C@H](NC)[C@H]3Oc3ccc(C(F)(F)F)cc3)[C@](C)(O)C[C@@H](C)CN[C@H](C)[C@@H](O)[C@](C)(O)[C@@H](CC)OC(=O)[C@@H]2C)C[C@@]1(C)OC [Example E-104],MIC flag at the example number (Table E),[1]; at least one BRD strain,E-104* (MIC ≤ 64 μg/mL for at least one BRD strain)
CCCNC[C@]1(O)[C@H](C)O[C@@H](O[C@H]2[C@H](C)[C@@H](O[C@@H]3O[C@H](C)C[C@H](N(C)C)[C@H]3Oc3ccccc3C#N)[C@](C)(O)C[C@@H](C)CN[C@H](C)[C@@H](O)[C@](C)(O)[C@@H](CC)OC(=O)[C@@H]2C)C[C@@]1(C)OC [Example E-105],MIC flag at the example number (Table E),[1]; at least one BRD strain,E-105* (MIC ≤ 64 μg/mL for at least one BRD strain)
CCCNC[C@]1(O)[C@H](C)O[C@@H](O[C@H]2[C@H](C)[C@@H](O[C@@H]3O[C@H](C)C[C@H](NC)[C@H]3Oc3ccc(Cl)cc3)[C@](C)(O)C[C@@H](C)CN[C@H](C)[C@@H](O)[C@](C)(O)[C@@H](CC)OC(=O)[C@@H]2C)C[C@@]1(C)OC [Example E-106],MIC flag at the example number (Table E),[1]; at least one BRD strain,E-106* (MIC ≤ 64 μg/mL for at least one BRD strain)
CC[C@H]1OC(=O)[C@H](C)[C@@H](O[C@H]2C[C@@](C)(OC)[C@](O)(CNCCN(C)C)[C@H](C)O2)[C@H](C)[C@@H](O[C@@H]2O[C@H](C)C[C@H](N(C)C)[C@H]2Oc2ccc(OC)cc2)[C@](C)(O)C[C@@H](C)CN[C@H](C)[C@@H](O)[C@]1(C)O [Example E-107],MIC flag at the example number (Table E),[1]; at least one BRD strain,E-107* (MIC ≤ 64 μg/mL for at least one BRD strain)
CCCN(C[C@]1(O)[C@H](C)O[C@@H](O[C@H]2[C@H](C)[C@@H](O[C@@H]3O[C@H](C)C[C@H](NC)[C@H]3Oc3ncccn3)[C@](C)(O)C[C@@H](C)CN[C@H](C)[C@@H](O)[C@](C)(O)[C@@H](CC)OC(=O)[C@@H]2C)C[C@@]1(C)OC)c1ncccn1 [Example E-118],MIC flag at the example number (Table E),[1]; at least one BRD strain,E-118* (MIC ≤ 64 μg/mL for at least one BRD strain)
CCCN(C[C@]1(O)[C@H](C)O[C@@H](O[C@H]2[C@H](C)[C@@H](O[C@@H]3O[C@H](C)C[C@H](NC)[C@H]3Oc3ncc(Cl)cn3)[C@](C)(O)C[C@@H](C)CN[C@H](C)[C@@H](O)[C@](C)(O)[C@@H](CC)OC(=O)[C@@H]2C)C[C@@]1(C)OC)c1ncc(Cl)cn1 [Example E-119],MIC flag at the example number (Table E),[1]; at least one BRD strain,E-119* (MIC ≤ 64 μg/mL for at least one BRD strain)
CCCN(C[C@]1(O)[C@H](C)O[C@@H](O[C@H]2[C@H](C)[C@@H](O[C@@H]3O[C@H](C)C[C@H](NC)[C@H]3Oc3ncc(C#N)cn3)[C@](C)(O)C[C@@H](C)CN[C@H](C)[C@@H](O)[C@](C)(O)[C@@H](CC)OC(=O)[C@@H]2C)C[C@@]1(C)OC)c1ncc(C#N)cn1 [Example E-122],MIC flag at the example number (Table E),[1]; at least one BRD strain,E-122* (MIC ≤ 64 μg/mL for at least one BRD strain)
CCCNC[C@]1(O)[C@H](C)O[C@@H](O[C@H]2[C@H](C)[C@@H](O[C@@H]3O[C@H](C)C[C@H](N(C)C)[C@H]3Oc3cccc(C)c3)[C@](C)(O)C[C@@H](C)CN[C@H](C)[C@@H](O)[C@](C)(O)[C@@H](CC)OC(=O)[C@@H]2C)C[C@@]1(C)OC [Example E-123],MIC flag at the example number (Table E),[1]; at least one BRD strain,E-123* (MIC ≤ 64 μg/mL for at least one BRD strain)
CCCNC[C@]1(O)[C@H](C)O[C@@H](O[C@H]2[C@H](C)[C@@H](O[C@@H]3O[C@H](C)C[C@H](N(C)C)[C@H]3Oc3ccc(OC)nc3)[C@](C)(O)C[C@@H](C)CN[C@H](C)[C@@H](O)[C@](C)(O)[C@@H](CC)OC(=O)[C@@H]2C)C[C@@]1(C)OC [Example E-133],MIC flag at the example number (Table E),[1]; at least one BRD strain,E-133* (MIC ≤ 64 μg/mL for at least one BRD strain)
CC[C@H]1OC(=O)[C@H](C)[C@@H](O[C@H]2C[C@@](C)(OC)[C@](O)(CNc3ccccc3)[C@H](C)O2)[C@H](C)[C@@H](O[C@@H]2O[C@H](C)C[C@H](NC)[C@H]2Oc2ccccc2)[C@](C)(O)C[C@@H](C)CN[C@H](C)[C@@H](O)[C@]1(C)O [Example E-137],MIC flag at the example number (Table E),[1]; at least one BRD strain,E-137* (MIC ≤ 64 μg/mL for at least one BRD strain)
CC[C@H]1OC(=O)[C@H](C)[C@@H](O[C@H]2C[C@@](C)(OC)[C@](O)(CNC3CC3)[C@H](C)O2)[C@H](C)[C@@H](O[C@@H]2O[C@H](C)C[C@H](N(C)C)[C@H]2Oc2ccccc2)[C@](C)(O)C[C@@H](C)CN[C@H](C)[C@@H](O)[C@]1(C)O [Example E-140],MIC flag at the example number (Table E),[1]; at least one BRD strain,E-140* (MIC ≤ 64 μg/mL for at least one BRD strain)
CCCNC[C@]1(O)[C@H](C)O[C@@H](O[C@H]2[C@H](C)[C@@H](O[C@@H]3O[C@H](C)C[C@H](N(C)C(=O)N(C)c4ccccc4)[C@H]3Oc3ccccc3Cl)[C@](C)(O)C[C@@H](C)CN[C@H](C)[C@@H](O)[C@](C)(O)[C@@H](CC)OC(=O)[C@@H]2C)C[C@@]1(C)OC [Example F-10],MIC for at least one BRD strain (asterisk on Ex#),[1],F-10* (MIC ≤ 64 μg/mL for at least one BRD strain)
CCCNC[C@]1(O)[C@H](C)O[C@@H](O[C@H]2[C@H](C)[C@@H](O[C@@H]3O[C@H](C)C[C@H](N(C)C(=O)N(C)CCC)[C@H]3Oc3ccccc3)[C@](C)(O)C[C@@H](C)CN[C@H](C)[C@@H](O)[C@](C)(O)[C@@H](CC)OC(=O)[C@@H]2C)C[C@@]1(C)OC [Example F-11],MIC for at least one BRD strain (asterisk on Ex#),[1],F-11* (MIC ≤ 64 μg/mL for at least one BRD strain)
CCCNC[C@]1(O)[C@H](C)O[C@@H](O[C@H]2[C@H](C)[C@@H](O[C@@H]3O[C@H](C)C[C@H](N(C)C(=O)N(C)c4ccccc4)[C@H]3Oc3cccc(OCC)c3)[C@](C)(O)C[C@@H](C)CN[C@H](C)[C@@H](O)[C@](C)(O)[C@@H](CC)OC(=O)[C@@H]2C)C[C@@]1(C)OC [Example F-20],MIC for at least one BRD strain (asterisk on Ex#),[1],F-20* (MIC ≤ 64 μg/mL for at least one BRD strain)
CCCNC[C@]1(O)[C@H](C)O[C@@H](O[C@H]2[C@H](C)[C@@H](O[C@@H]3O[C@H](C)C[C@H](N(C)C(=O)N(C)c4ccccc4)[C@H]3Oc3ccc(C#N)cc3)[C@](C)(O)C[C@@H](C)CN[C@H](C)[C@@H](O)[C@](C)(O)[C@@H](CC)OC(=O)[C@@H]2C)C[C@@]1(C)OC [Example F-21],MIC for at least one BRD strain (asterisk on Ex#),[1],F-21* (MIC ≤ 64 μg/mL for at least one BRD strain)
CCCNC[C@]1(O)[C@H](C)O[C@@H](O[C@H]2[C@H](C)[C@@H](O[C@@H]3O[C@H](C)C[C@H](N(C)C(=O)N4CCOc5ccccc54)[C@H]3Oc3ccccc3)[C@](C)(O)C[C@@H](C)CN[C@H](C)[C@@H](O)[C@](C)(O)[C@@H](CC)OC(=O)[C@@H]2C)C[C@@]1(C)OC [Example G-2],MIC flag at the example number (Table G),[1]; at least one BRD strain,G-2* (MIC ≤ 64 μg/mL for at least one BRD strain)
